Reference: ChEMBL document CHEMBL1275550, “In vitro activity of doripenem, a carbapenem for the treatment of challenging infections caused by gram-negative bacteria, against recent clinical isolates from the United States” (2008)
In brackets after ≈: the same amount, converted by molar mass.

Legend:
[1] = test system: Pseudomonas aeruginosa; test: Antimicrobial activity against Pseudomonas aeruginosa isolated from ICU patient assessed as intermediate isolate by broth microdilution method
[2] = test system: Pseudomonas aeruginosa; test: Antimicrobial activity against Ceftazidime susceptible Pseudomonas aeruginosa by broth microdilution method; format: functional
[3] = test system: Pseudomonas aeruginosa; test: Antimicrobial activity against Pseudomonas aeruginosa isolated from non-ICU patient by broth microdilution method; format: functional
[4] = test system: Citrobacter; test: Antimicrobial activity against Citrobacter with derepressed AmpC beta-lactamsae assessed as susceptible isolate by broth microdilution method; format: functional
[5] = test system: Serratia marcescens; test: Antimicrobial activity against Ceftazidime susceptible Serratia marcescens assessed as susceptible isolate by broth microdilution method; format: functional
[6] = test system: Serratia marcescens; test: Antimicrobial activity against Ceftazidime susceptible Serratia marcescens assessed as intermediate isolate by broth microdilution method; format: functional
[7] = test system: Enterobacteriaceae; test: Antimicrobial activity against ceftazidime-susceptible Enterobacteriaceae by broth microdilution method; format: functional
[8] = test system: Enterobacter cloacae; test: Antimicrobial activity against Enterobacter cloacae with derepressed AmpC beta-lactamsae by broth microdilution method; format: functional
[9] = test system: Klebsiella pneumoniae; test: Antimicrobial activity against ESBL producing Klebsiella pneumoniae by broth microdilution method; format: functional
[10] = test system: Serratia marcescens; test: Antimicrobial activity against Ceftazidime susceptible Serratia marcescens assessed as resistant isolate by broth microdilution method; format: functional
[11] = test system: Enterobacter cloacae; test: Antimicrobial activity against Enterobacter cloacae with derepressed AmpC beta-lactamsae assessed as intermediate isolate by broth microdilution method; format: functional
[12] = test system: Escherichia coli; test: Antimicrobial activity against Non-ESBL Escherichia coli assessed as susceptible isolate by broth microdilution method; format: functional
[13] = test system: Proteus mirabilis; test: Antimicrobial activity against ESBL producing Proteus mirabilis assessed as intermediate isolate by broth microdilution method; format: functional
[14] = test system: Acinetobacter; test: Antimicrobial activity against imipenem non-susceptible Acinetobacter assessed as resistant isolate by broth microdilution method; format: functional
[15] = test system: Pseudomonas aeruginosa; test: Antimicrobial activity against imipenem non-susceptible Pseudomonas aeruginosa assessed as intermediate isolate by broth microdilution method; format: functional
[16] = test system: Proteus mirabilis; test: Antimicrobial activity against ESBL producing Proteus mirabilis by broth microdilution method; format: functional
[17] = test system: Acinetobacter; test: Antimicrobial activity against imipenem susceptible Acinetobacter by broth microdilution method; format: functional
[18] = test system: Pseudomonas aeruginosa; test: Antimicrobial activity against imipenem susceptible Pseudomonas aeruginosa assessed as susceptible isolate by broth microdilution method; format: functional
[19] = test system: Pseudomonas aeruginosa; test: Antimicrobial activity against Ceftazidime susceptible Pseudomonas aeruginosa assessed as resistant isolate by broth microdilution method; format: functional
[20] = test system: Citrobacter; test: Antimicrobial activity against Citrobacter with nonderepressed AmpC beta-lactamsae assessed as intermediate isolate by broth microdilution method; format: functional
[21] = test system: Klebsiella pneumoniae; test: Antimicrobial activity against Non-ESBL Klebsiella pneumoniae assessed as susceptible isolate by broth microdilution method; format: functional
[22] = test system: Escherichia coli; test: Antimicrobial activity against Non-ESBL Escherichia coli assessed as intermediate isolate by broth microdilution method; format: functional
[23] = test system: Pseudomonas aeruginosa; test: Antimicrobial activity against Ceftazidime non-susceptible Pseudomonas aeruginosa assessed as intermediate isolate by broth microdilution method; format: functional
[24] = test system: Enterobacteriaceae; test: Antimicrobial activity against Ceftazidime non-susceptible Enterobacteriaceae assessed as intermediate isolate by broth microdilution method; format: functional
[25] = test system: Pseudomonas aeruginosa; test: Antimicrobial activity against Ceftazidime non-susceptible Pseudomonas aeruginosa assessed as susceptible isolate by broth microdilution method; format: functional
[26] = test system: Escherichia coli; test: Antimicrobial activity against Non-ESBL Escherichia coli by broth microdilution method; format: functional
[27] = test system: Klebsiella pneumoniae; test: Antimicrobial activity against ESBL producing Klebsiella pneumoniae assessed as intermediate isolate by broth microdilution method; format: functional
[28] = test system: Serratia marcescens; test: Antimicrobial activity against Ceftazidime non-susceptible Serratia marcescens assessed as susceptible isolate by broth microdilution method; format: functional
[29] = test system: Enterobacteriaceae; test: Antimicrobial activity against ceftazidime-susceptible Enterobacteriaceae assessed as susceptible isolate by broth microdilution method; format: functional
[30] = test system: Acinetobacter; test: Antimicrobial activity against imipenem susceptible Acinetobacter assessed as intermediate isolate by broth microdilution method; format: functional
[31] = test system: Proteus mirabilis; test: Antimicrobial activity against Non-ESBL Proteus mirabilis by broth microdilution method; format: functional
[32] = test system: Enterobacteriaceae; test: Antimicrobial activity against ceftazidime-susceptible Enterobacteriaceae assessed as intermediate isolate by broth microdilution method; format: functional
[33] = test system: Enterobacteriaceae; test: Antimicrobial activity against ceftazidime-susceptible Enterobacteriaceae assessed as resistant isolate by broth microdilution method; format: functional
[34] = test system: Serratia marcescens; test: Antimicrobial activity against Ceftazidime non-susceptible Serratia marcescens assessed as intermediate isolate by broth microdilution method; format: functional
[35] = test system: Pseudomonas aeruginosa; test: Antimicrobial activity against Pseudomonas aeruginosa isolated from non-ICU patient assessed as resistant isolate by broth microdilution method
[36] = test system: Citrobacter; test: Antimicrobial activity against Citrobacter with derepressed AmpC beta-lactamsae by broth microdilution method; format: functional
[37] = test system: Pseudomonas aeruginosa; test: Antimicrobial activity against Ceftazidime non-susceptible Pseudomonas aeruginosa assessed as resistant isolate by broth microdilution method; format: functional
[38] = test system: Enterobacter cloacae; test: Antimicrobial activity against Enterobacter cloacae with nonderepressed AmpC beta-lactamsae assessed as intermediate isolate by broth microdilution method; format: functional
[39] = test system: Proteus mirabilis; test: Antimicrobial activity against Non-ESBL Proteus mirabilis assessed as intermediate isolate by broth microdilution method; format: functional
[40] = test system: Pseudomonas aeruginosa; test: Antimicrobial activity against Pseudomonas aeruginosa isolated from ICU patient assessed as resistant isolate by broth microdilution method
[41] = test system: Pseudomonas aeruginosa; test: Antimicrobial activity against Pseudomonas aeruginosa isolated from ICU patient assessed as susceptible isolate by broth microdilution method
[42] = test system: Pseudomonas aeruginosa; test: Antimicrobial activity against imipenem susceptible Pseudomonas aeruginosa assessed as intermediate isolate by broth microdilution method; format: functional
[43] = test system: Acinetobacter; test: Antimicrobial activity against imipenem non-susceptible Acinetobacter assessed as susceptible isolate by broth microdilution method; format: functional
[44] = test system: Klebsiella pneumoniae; test: Antimicrobial activity against Klebsiella pneumoniae assessed as susceptible isolate by broth microdilution method; format: functional
[45] = test system: Streptococcus pneumoniae; test: Antimicrobial activity against penicillin-susceptible Streptococcus pneumoniae by broth microdilution method; format: functional; conditions: Streptococcus pneumoniae
[46] = test system: Staphylococcus; test: Antimicrobial activity against methicillin-susceptible coagulase-negative Staphylococcus by broth microdilution method; format: functional; conditions: Staphylococcus
[47] = test system: Acinetobacter; test: Antimicrobial activity against Acinetobacter by broth microdilution method; format: functional
[48] = test system: Pseudomonas aeruginosa; test: Antimicrobial activity against Pseudomonas aeruginosa assessed as susceptible isolate by broth microdilution method; format: functional
[49] = test system: Citrobacter; test: Antimicrobial activity against Citrobacter by broth microdilution method; format: functional
[50] = test system: Enterobacteriaceae; test: Antimicrobial activity against Enterobacteriaceae assessed as susceptible isolate by broth microdilution method; format: functional
[51] = test system: Enterobacteriaceae; test: Antimicrobial activity against Enterobacteriaceae by broth microdilution method; format: functional
[52] = test system: Enterobacter cloacae; test: Antimicrobial activity against Enterobacter cloacae assessed as susceptible isolate by broth microdilution method; format: functional
[53] = test system: Serratia marcescens; test: Antimicrobial activity against Serratia marcescens assessed as susceptible isolate by broth microdilution method; format: functional

CC(C)(O/N=C(\C(=O)N[C@@H]1C(=O)N2C(C(=O)[O-])=C(C[n+]3ccccc3)CS[C@H]12)c1csc(N)n1)C(=O)O [CEFTAZIDIME]
Activity [1]: 5.8%
MIC50 [2]: 2 µg/mL (≈ 3.66 µM)
MIC90 [2]: 4 µg/mL (≈ 7.32 µM)
MIC50 [3]: 2 µg/mL (≈ 3.66 µM)
MIC90 [3]: 32 µg/mL (≈ 58.5 µM)
Activity [4]: 0%
Activity [5]: 100%
Activity [6]: 0%
MIC50 [7]: 0.12 µg/mL (≈ 0.22 µM)
MIC90 [7]: 0.5 µg/mL (≈ 0.915 µM)
MIC50 [8]: > 32 µg/mL
MIC90 [8]: > 32 µg/mL
MIC50 [9]: > 32 µg/mL
MIC90 [9]: > 32 µg/mL
Activity [10]: 0%
Activity [11]: 1.9%
Activity [12]: 98.6%
Activity [13]: 50%
Activity [14]: 84.3%
Activity [15]: 5.3%
MIC [16]: 8 µg/mL (≈ 14.6 µM)
MIC50 [17]: 4 µg/mL (≈ 7.32 µM)
MIC90 [17]: > 32 µg/mL
Activity [18]: 90.9%
Activity [19]: 0%
Activity [20]: 0.4%
Activity [21]: 99.2%
Activity [22]: 0.5%
Activity [23]: 23.6%
Activity [24]: 7.6%
Activity [25]: 0%
MIC50 [26]: 0.12 µg/mL (≈ 0.22 µM)
MIC90 [26]: 0.25 µg/mL (≈ 0.457 µM)
Activity [27]: 0%
Activity [28]: 0%
Activity [29]: 100%
Activity [30]: 5.5%
MIC [31]: ≤ 0.03 µg/mL
MIC50 [31]: ≤ 0.03 µg/mL
MIC90 [31]: 0.06 µg/mL (≈ 0.11 µM)
Activity [32]: 0%
Activity [33]: 0%
Activity [34]: 0%
Activity [35]: 10.4%
MIC [36]: > 32 µg/mL
MIC50 [36]: > 32 µg/mL
MIC90 [36]: > 32 µg/mL
Activity [37]: 76.4%
Activity [38]: 0.7%
Activity [39]: 0.2%
Activity [40]: 14.4%
Activity [41]: 79.9%
Activity [42]: 2.2%
Activity [43]: 15.7%

C[C@@H](O)[C@H]1C(=O)N2C(C(=O)O)=C(S[C@@H]3CN[C@H](CNS(N)(=O)=O)C3)[C@H](C)[C@H]12 [DORIPENEM]
MIC50 [2]: 0.25 µg/mL (≈ 0.595 µM)
MIC90 [2]: 2 µg/mL (≈ 4.76 µM)
MIC50 [3]: 0.25 µg/mL (≈ 0.595 µM)
MIC90 [3]: 4 µg/mL (≈ 9.51 µM)
Activity [4]: 100%
Activity [44]: 99.6%
Activity [5]: 98.6%
MIC50 [7]: 0.03 µg/mL (≈ 0.0713 µM)
MIC90 [7]: 0.12 µg/mL (≈ 0.285 µM)
MIC50 [8]: 0.12 µg/mL (≈ 0.285 µM)
MIC90 [8]: 0.25 µg/mL (≈ 0.595 µM)
MIC50 [9]: 0.03 µg/mL (≈ 0.0713 µM)
MIC90 [9]: 0.12 µg/mL (≈ 0.285 µM)
Activity [12]: 99.8%
MIC50 [45]: ≤ 0.015 µg/mL
MIC90 ([45]; read-out: MIC90): ≤ 0.015 µg/mL
MIC [16]: 0.06 µg/mL (≈ 0.143 µM)
MIC50 [17]: 0.25 µg/mL (≈ 0.595 µM)
MIC90 [17]: 2 µg/mL (≈ 4.76 µM)
Activity [18]: 98.5%
MIC50 ([46]; read-out: MIC50): 0.03 µg/mL (≈ 0.0713 µM)
MIC90 ([46]; read-out: MIC90): 0.06 µg/mL (≈ 0.143 µM)
MIC50 [47]: 0.5 µg/mL (≈ 1.19 µM)
MIC90 [47]: 32 µg/mL (≈ 76.1 µM)
Activity [21]: 99.7%
Activity [25]: 60.9%
MIC [26]: ≤ 0.015 µg/mL
MIC50 [26]: ≤ 0.015 µg/mL
MIC90 [26]: 0.03 µg/mL (≈ 0.0713 µM)
Activity [48]: 88.3%
Activity [28]: 100%
MIC50 [49]: 0.03 µg/mL (≈ 0.0713 µM)
MIC90 [49]: 0.06 µg/mL (≈ 0.143 µM)
Activity [29]: 99.7%
MIC50 [31]: 0.12 µg/mL (≈ 0.285 µM)
MIC90 [31]: 0.5 µg/mL (≈ 1.19 µM)
MIC50 [36]: 0.06 µg/mL (≈ 0.143 µM)
MIC90 [36]: 0.06 µg/mL (≈ 0.143 µM)
Activity [50]: 99.5%
MIC50 [51]: 0.03 µg/mL (≈ 0.0713 µM)
MIC90 [51]: 0.12 µg/mL (≈ 0.285 µM)
Activity [52]: 99.2%
Activity [53]: 98.7%
Activity [41]: 78.4%
Activity [43]: 0%
